# “Also recorded” adds a separate entry of the source. Like-named read-outs stand apart in the source and are kept apart here.
# Columns and labels:
# [1] = system: β 1,4-galactosyltransferase; conditions: previous observation, Wong 1992; Srivastava 1993; cited from earlier work
# [2] = system: β 1,4-galactosyltransferase; assay: Inhibition study of β-1,4-galactosyltransferase (UDP-[3H]Gal transfer to N-acetylglucosamine); type: biochemical, bovine milk; conditions: for mode of inhibition of β-1,4-galactosyltransferase: HEPES 100 mM, pH 7.4
# Description: All assays contained 10 mM of MnCl2, 2 mM of UDP-[^3 H]Gal, 5 μL of 0.125 mg/mL galactosyltransferase, 0.5-4 mM of N-acetylglucosamine, 0-0.05 mM of 1, and 100 mM of HEPES buffer (pH 7.4) in a total assay volume of 0.05 mL. Assay was performed at 25° C. Reactions were halted with the addition of 0.3 mL of distilled, de-ionized water after 10 min. The reaction mixtures were passed through a pipette column (2 cm) of Sepadex QAE A-25 with 1 mL of distilled, de-ionized water. The obtained fractions were collected in 10 mL of ScintiVerse I scintillation cocktail. A control reaction without enzyme was used to establish the background, non-enzymatic cleavage rate. A typical control reaction of 41754 cpm UDP-[^3 H]Gal would result in 890 cpm of non-enzymatic column flow through.
# [3] = molecular target: T1, α-1,3-fucosyltransferase V (Homo sapiens, UniProt Q11128); assay: Inhibition of α-1,3-fucosyltransferase V (FucT V), GDP-Fuc varied at fixed inhibitor concentrations; type: biochemical; conditions: for mode of inhibition of FucT V: GDP-Fuc varied, constant LacNAc acceptor, listed as GDP-2F-Fuc
# T1 construct: made in house
# T1 sequence (Q11128 1-374): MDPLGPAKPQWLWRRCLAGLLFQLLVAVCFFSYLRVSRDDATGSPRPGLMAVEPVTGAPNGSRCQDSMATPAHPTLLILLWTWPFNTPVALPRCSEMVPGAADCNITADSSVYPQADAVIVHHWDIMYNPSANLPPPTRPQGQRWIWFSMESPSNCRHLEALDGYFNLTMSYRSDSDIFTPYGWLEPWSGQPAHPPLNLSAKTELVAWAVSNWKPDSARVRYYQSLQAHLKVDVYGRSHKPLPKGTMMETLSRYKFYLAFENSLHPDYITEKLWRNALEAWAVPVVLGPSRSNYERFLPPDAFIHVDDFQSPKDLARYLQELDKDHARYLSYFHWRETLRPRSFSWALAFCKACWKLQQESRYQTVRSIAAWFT
# Description: GDP-Fuc concentration was varied ([…]) and the acceptor sugar, LacNAc-b-O--(CH2)5 CO2 CH3, was kept at twice its km level, 0.6 mM. (Inset) A replot of the slopes as a function of GDP-2F-Fuc concentration is presented as a graphical Ki determination (Ki =x axis intercept).
# (§1) The interaction of GDP-2F-Fuc with FucT V was evaluated. The mode of inhibition of FucT V by GDP-2F-Fuc was evaluated by varying the GDP-Fuc concentrations at fixed GDP-2F-Fuc concentrations at a constant LacNAc-b-O--(CH2)5 CO2 CH3 concentration. […] Pre incubation of 0.010 mM GDP-2F-Fuc with the FucT V in the presence of LacNAc-b-O--(CH2)5 CO2 CH3 and MnCl2 was performed for 0-80 minutes. The reactions were initiated with GDP-Fuc and allowed to react for 30 minutes. The percent inhibition remained constant at 58% which is expected for reversible inhibition. If GDP-2F-Fuc was either an inactivator of a slow substrate, then the inhibition would either increase or decrease as a function of time.
# Anhydrous pyridine was purchased from Aldrich and used without further purification. N-Acetyllactosamine, Dowex 1-X8, MES, pyruvate kinase, lactate dehydrogenase, PEP, GDP, NADH, guanosine 5'-monophospho-morpholidate 4-morpholine-N,N'-dicyclohexylcarboxamidine salt, GDP-Fuc, and cacodylic acid were purchased from Sigma. Guanosine 5'-diphospho-[U-^14 C]-b-L-fucose was purchased from Amersham Life Science. ScintiVerseI scintillation cocktail and MnCl2.4 H2 O were purchased from Fisher Scientific Company. Protein concentrations were determined with the Coomassie protein staining reagent with albumin standards as purchased from Pierce. The scintillation counter used was the Beckman LS 3801. Fluorescence was measured on a Hitachi F2000 Fluorescence Spectrophotometer. Human a-1,3-fucosyltransferase and LacNAc-b-O--(CH2)5 CO2 CH3 were prepared according to published procedures (Murray et al.(1996) Biochemistry 35, 11183-11195.).
# GDP-Fuc concentration was varied ([…]) at fixed concentrations of GDP-2F-Fuc ([…]), and the acceptor sugar, LacNAc-b-O-(CH2)5 CO2 CH3, was kept at twice its Km level, 0.6 mM. Each assay contained 0.3 munit of FucT V and 10 mM MnCl2 in a 100 mM MES buffer (pH 6.0). Reactions were 30 minutes at room temperature.
# [4] = molecular target: T2, FucT V (Homo sapiens, UniProt Q11128); assay: Pre-incubation of GDP-2F-Fuc with FucT V (slow substrate / inactivator test); type: biochemical
# T2 sequence (Q11128 1-374): T1 sequence (Q11128 1-374)
# Description: as §1
# A 0.350 mL solution that contained 10 mM MnCl2 , 2.1 munits FucT V, 0.30 mM LacNAc-b-O--(CH2)5 CO2 CH3, 0.010 mM GDP-2F-Fuc, and 100 mM MES (pH 6.0). This solution was subject to incubation at room temperature for various time periods (0, 3, 10, 20, 30, 60, 80 min). After the incubation time, a 0.050 mL aliquot was removed and GDP-[U-^14 C]-fucose was added to a final concentration of 0.050 mM to initiate the fucosyltransfer reaction. After a 30 minute reaction time period, the solution was passed through a Dowex 1 column and the amount of product determined.
# [5] = system: β 1,4-galactosyltransferase; conditions: literature: Morrison, Ebner J. Biol. Chem. 1971; read-out: Km of GlcNAc (lit); cited from earlier work
compound,measurement,setting,value
O=c1ccn([C@@H]2O[C@H](COP(=O)(O)OP(=O)(O)O[C@@H]3C[C@@H](O)[C@@H](O)[C@@H](CO)O3)[C@@H](O)[C@H]2O)c(=O)[nH]1 [2-deoxy derivative],substrate quality for the transferase,[1],good substrate
"O=c1ccn([C@@H]2O[C@H](COP(=O)(O)OP(=O)(O)O[C@H]3O[C@H](CO)[C@H](O)[C@H](O)[C@H]3F)[C@@H](O)[C@H]2O)c(=O)[nH]1 [Compound 1, Uridine 5'-diphospho-2-deoxy-2-fluoro-α-D-galactose]","mode of inhibition of β-1,4-galactosyltransferase",[2],competitive inhibitor
same,"mode of inhibition of β-1,4-galactosyltransferase","[2]; listed as UDP-2F-Gal, 1",potent competitive inhibitor
same,"mode of inhibition of β-1,4-galactosyltransferase",[2]; listed as UDP-2FGal,competitive inhibitor
same,"mode of inhibition of β-1,4-galactosyltransferase",[2]; listed as UDP-2FGal 1,competitive inhibition
same,Ki,"[2]; competitive inhibition, UDP-Gal, GlcNAc, Mn2+ 10 mM, HEPES 100 mM pH 7.4, 25° C.",41 µM
"C[C@@H]1O[C@H](OP(=O)(O)OP(=O)(O)OC[C@H]2O[C@@H](n3cnc4c(=O)[nH]c(N)nc43)[C@H](O)[C@@H]2O)[C@@H](F)[C@H](O)[C@@H]1O [Compound 21, Guanosine 5'-diphospho-2-deoxy-2-fluoro-β-L-fucose]",mode of inhibition of FucT V,[3],potent competitive inhibitor; also recorded: competitive inhibition pattern
same,mode of inhibition of FucT V,[3]; 21,potent competitive inhibitor
same,relative potency as FucT V inhibitor,[3]; compared with inhibitors known to date,most potent inhibitor of this enzyme to date
same,Ki,"[3]; α-1,3-fucosyltransferase V, summary and description",4.2 µM
same,percent inhibition after pre-incubation,"[4]; 0.010 mM GDP-2F-Fuc, pre-incubation 0-80 minutes, 30 minutes reaction, remained constant",58%
same,effect of pre-incubation on the potency of inhibition,[4]; incubation with FucT V and acceptor prior to GDP-Fuc,no effect
same,slow substrate or inactivator behaviour,"[4]; pre-incubation with FucT V, acceptor and MnCl2 before GDP-Fuc, listed as GDP-2F-Fuc",not a slow substrate or an inactivator; also recorded: neither an inactivator nor a slow substrate
"CC(=O)N[C@H]1C(O)O[C@H](CO)[C@@H](O)[C@@H]1O (stereo partly shown) [GlcNAc, N-acetylglucosamine, reference compound]",Km,[5],6 mM
same,Vmax,"[2]; acceptor GlcNAc, HEPES pH 7.4",0.14 ± 0.01 µmol/min
same,Km,"[2]; β 1,4-galactosyltransferase, HEPES pH 7.4, read-out: Km of GlcNAc",5.3 ± 0.5 mM

# — patent US5770407A, “Process for preparing nucleotide inhibitors of glycosyltransferases” (The Scripps Research Institute, priority 1996, dated 1998)
